Source: patent publication US20090270407A1, “FUNGICIDAL ISOXAZOLIDINES” (E. I. DU PONT DE NEMOURS AND COMPANY, priority 2008, published 2009)
Marks after values point to notes of the source that are not given here.

Legend:
Conditions in all cases: 100 = 100 % disease control, 0 = no disease control relative to controls
Septoria tritici = assay: Test D: wheat leaf blotch, preventive spray on wheat seedlings, visual disease rating; assay type: in vivo
Description: A dash (−) indicates no test results.

[1] = tested on: Puccinia recondita f. sp. tritici; assay: Test B: wheat leaf rust, preventive spray on wheat seedlings, visual disease rating
Description: (§1) General protocol for preparing test suspensions for Tests A-I: The test compounds were first dissolved in acetone in an amount equal to 3% of the final volume and then suspended at the desired concentration (in ppm) in acetone and purified water (50/50 mix) containing 250 ppm of the surfactant Trem® 014 (polyhydric alcohol esters). The resulting test suspensions were then used in Tests A-I. Spraying a 200 ppm test suspension to the point of run-off on the test plants was the equivalent of a rate of 500 g/ha.
The test suspension was sprayed to the point of run-off on wheat seedlings. The following day the seedlings were inoculated with a spore suspension of Puccinia recondita f. sp. tritici (the causal agent of wheat leaf rust) and incubated in a saturated atmosphere at 20° C. for 24 h, and then moved to a growth chamber at 20° C. for 7 days, after which time visual disease ratings were made.
(§2) All results are for 200 ppm except where followed by “*” which indicates 40 ppm.

Botrytis cinerea = assay: Test E: tomato Botrytis, preventive spray on tomato seedlings, visual disease rating
Description: as §1
The test suspension was sprayed to the point of run-off on tomato seedlings. The following day the seedlings were inoculated with a spore suspension of Botrytis cinerea (the causal agent of tomato Botrytis) and incubated in saturated atmosphere at 20° C. for 48 h, and then moved to a growth chamber at 24° C. for 3 additional days, after which time visual disease ratings were made.
as §2

Septoria nodorum = assay: Test C: wheat glume blotch, preventive spray on wheat seedlings, visual disease rating
Description: (An asterisk “*” next to the rating value indicates a 40 ppm test suspension.)
The test suspension was sprayed to the point of run-off on wheat seedlings. The following day the seedlings were inoculated with a spore suspension of Septoria nodorum (the causal agent of wheat glume blotch) and incubated in a saturated atmosphere at 20° C. for 48 h, and then moved to a growth chamber at 20° C. for 7 days, after which time visual disease ratings were made.
A dash (−) indicates no test results. All results are for 200 ppm except where followed by “*” which indicates 40 ppm.

[2] = tested on: Erysiphe graminis f. sp. tritici; assay: Test A: wheat powdery mildew, preventive spray on wheat seedlings, visual disease rating
Alternaria solani = assay: Test F: tomato early blight, preventive spray on tomato seedlings, visual disease rating

Compound | Test D disease control rating (Septoria tritici; 40 ppm (marked *)) | Test B disease control rating ([1]; 40 ppm (marked *)) | Test E disease control rating (Botrytis cinerea; 40 ppm (marked *)) | Test C disease control rating (Septoria nodorum; 40 ppm (marked *)) | Test A disease control rating ([2]; 40 ppm (marked *)) | Test F disease control rating (Alternaria solani; 40 ppm (marked *)) | Test D disease control rating (Septoria tritici; 200 ppm) | Test B disease control rating ([1]; 200 ppm) | Test E disease control rating (Botrytis cinerea; 200 ppm) | Test C disease control rating (Septoria nodorum; 200 ppm) | Test A disease control rating ([2]; 200 ppm) | Test F disease control rating (Alternaria solani; 200 ppm)
Cc1cc(C)n(-c2ccc(C3CC(C)(c4cccnc4)ON3C)cc2)n1 (stereo not drawn) [Compound 50] | 73* % | 0* % | 84* % | 87* % | 0* % | 0* % | – | – | – | – | – | –
Cc1cc(C)n(-c2ccc(C3CC(C)(c4cccnc4)ON3C)cc2)n1 (stereo not drawn) [Compound 51] | 32* % | 0* % | 0* % | 0* % | 0* % | 0* % | – | – | – | – | – | –
CN1OC(C)(c2cccnc2)CC1c1ccc(-c2cncnc2)cc1 (stereo not drawn) [Compound 52] | 76* % | 0* % | 92* % | 99* % | 0* % | 59* % | – | – | – | – | – | –
CN1OC(C)(c2cccnc2)CC1c1ccc(-c2cncnc2)cc1 (stereo not drawn) [Compound 53] | 68* % | 0* % | 25* % | 0* % | 0* % | 31* % | – | – | – | – | – | –
CN1OC(C)(c2cccnc2)CC1c1ccc(-c2cccs2)cc1 (stereo not drawn) [Compound 54] | 79* % | 9* % | 99* % | 98* % | 71* % | 99* % | – | – | – | – | – | –
CN1OC(C)(c2cccnc2)CC1c1ccc(-c2cccs2)cc1 (stereo not drawn) [Compound 55] | 93* % | 0* % | 97* % | 84* % | 61* % | 85* % | – | – | – | – | – | –
CN1OC(C)(c2cccnc2)CC1c1ccc(-n2cc(I)cn2)cc1 (stereo not drawn) [Compound 56] | 74* % | 0* % | 94* % | 99* % | 52* % | 91* % | – | – | – | – | – | –
CN1OC(C)(c2cccnc2)CC1c1ccc(-n2cc(I)cn2)cc1 (stereo not drawn) [Compound 57] | 57* % | 0* % | 0* % | 0* % | 0* % | 0* % | – | – | – | – | – | –
CN1OC(C)(c2cccnc2)CC1c1ccc(-n2nc(C(F)(F)F)cc2C(F)(F)F)cc1 (stereo not drawn) [Compound 58] | 91* % | 0* % | 0* % | 0* % | 80* % | 8* % | – | – | – | – | – | –
CN1OC(C)(c2cccnc2)CC1c1ccc(-n2nc(C(F)(F)F)cc2C(F)(F)F)cc1 (stereo not drawn) [Compound 59] | 2* % | 0* % | 0* % | 0* % | 52* % | 0* % | – | – | – | – | – | –
CN1OC(C)(c2cccnc2)CC1c1ccc(-c2ccncc2)cc1 (stereo not drawn) [Compound 60] | 3* % | 0* % | 29* % | 0* % | 0* % | 0* % | – | – | – | – | – | –
CN1OC(C)(c2cccnc2)CC1c1ccc(-c2ccncc2)cc1 (stereo not drawn) [Compound 61] | 5* % | 0* % | 0* % | 0* % | 0* % | 0* % | – | – | – | – | – | –
CN1OC(C)(c2cccnc2)CC1c1cccc(Br)c1 (stereo not drawn) [Compound 64] | – | – | – | – | – | – | 45% | 0% | 0% | 0% | 64% | 0%
CN1OC(C)(c2cccnc2)CC1c1ccccc1Br (stereo not drawn) [Compound 65] | – | – | – | – | – | – | 5% | 0% | 0% | 0% | 0% | 0%
CN1OC(C)(c2cccnc2)CC1c1ccccc1Br (stereo not drawn) [Compound 66] | – | – | – | – | – | – | 5% | 0% | 0% | 0% | 0% | 0%
CN1OC(C)(c2cccnc2)CC1c1cccc(Br)c1 (stereo not drawn) [Compound 67] | – | – | – | – | – | – | 8% | 0% | 34% | 0% | 47% | 0%
Cc1cnn(-c2ccc(C3CC(C)(c4cccnc4)ON3C)cc2)c1 (stereo not drawn) [Compound 69] | 12* % | 0* % | 87* % | 97* % | 0* % | 99* % | – | – | – | – | – | –
CN1OC(C)(c2cccnc2)CC1c1ccc(-n2nc(C(F)(F)F)cc2-c2ccccn2)cc1 (stereo not drawn) [Compound 70] | 54* % | 26* % | 0* % | 0* % | 0* % | 72* % | – | – | – | – | – | –
CN1OC(C)(c2cccnc2)CC1c1ccc(-n2nc(C(F)(F)F)cc2-c2ccccn2)cc1 (stereo not drawn) [Compound 71] | 10* % | 28* % | 0* % | 0* % | 0* % | 12* % | – | – | – | – | – | –
CN1OC(c2cccnc2)CC1c1ccc(-n2ccc(C(F)(F)F)n2)cc1 (stereo not drawn) [Compound 72] | 93* % | 100* % | 96* % | 100* % | 99* % | 94* % | – | – | – | – | – | –
CN1OC(C)(c2cccnc2)CC1c1ccc(-n2nc(-c3ccccn3)cc2C(F)(F)F)cc1 (stereo not drawn) [Compound 74] | 2* % | 22* % | 0* % | 0* % | 0* % | 0* % | – | – | – | – | – | –
CN1OC(C)(c2cccnc2)CC1c1ccc(-n2nc(-c3ccccn3)cc2C(F)(F)F)cc1 (stereo not drawn) [Compound 75] | 19* % | 22* % | 0* % | 0* % | 0* % | 0* % | – | – | – | – | – | –
CN1OC(C)(c2cccnc2)CC1c1cccc(Cl)c1 (stereo not drawn) [Compound 76] | – | – | – | – | – | – | 34% | 0% | 85% | 0% | 84% | 9%
CN1OC(C)(c2cccnc2)CC1c1cccc(Cl)c1 (stereo not drawn) [Compound 77] | – | – | – | – | – | – | 62% | 0% | 0% | 0% | 0% | 0%
CN1OC(C)(c2cccnc2)CC1c1ccccc1F (stereo not drawn) [Compound 78] | – | – | – | – | – | – | 16% | 0% | 0% | 0% | 0% | 0%
CN1OC(C)(c2cccnc2)CC1c1ccccc1F (stereo not drawn) [Compound 79] | – | – | – | – | – | – | 7% | 27% | 0% | 22% | 0% | 0%
CN1OC(C)(c2cccnc2)CC1c1ccc(F)c(F)c1 (stereo not drawn) [Compound 81] | – | – | – | – | – | – | 15% | 0% | 78% | 0% | 56% | 0%
CN1OC(C)(c2cccnc2)CC1c1ccc(F)c(F)c1 (stereo not drawn) [Compound 82] | – | – | – | – | – | – | 40% | 18% | 0% | 0% | 0% | 0%
CN1OC(C)(c2cccnc2)CC1c1ccc(Br)cc1Br (stereo not drawn) [Compound 83] | – | – | – | – | – | – | 91% | 0% | 82% | 81% | 98% | 56%
CN1OC(C)(c2cccnc2)CC1c1ccc(Br)cc1Br (stereo not drawn) [Compound 84] | – | – | – | – | – | – | 52% | 27% | 43% | 60% | 94% | 0%
